In ChEMBL document CHEMBL3792317, “Novel tetrazoloquinoline-rhodanine conjugates: Highly efficient synthesis and biological evaluation” (Bioorg Med Chem Lett, 2016):
Values after ≈ are worked out from the molar mass of the structure shown.

What was measured:
Aspergillus niger = assay: Antifungal activity against Aspergillus niger NCIM 1196 after 48 hrs by agar cup plate method; assay type: functional; conditions: NCIM 1196, 48 h
Cryptococcus neoformans = assay: Antifungal activity against Cryptococcus neoformans NCIM 576 after 48 hrs by agar cup plate method; assay type: functional; conditions: NCIM 576, 48 h
[1] = test system: Mycobacterium tuberculosis; assay: Antitubercular activity against Mycobacterium tuberculosis H37Ra ATCC 25177 at 10 ug/ml incubated for 40 mins by XTT Reduction Menadione Assay; assay type: functional; conditions: H37Ra ATCC 25177, 40 min, read-out: GI
Aspergillus flavus = assay: Antifungal activity against Aspergillus flavus NCIM 539 after 48 hrs by agar cup plate method; assay type: functional; conditions: NCIM 539, 48 h
[2] = test system: Mycobacterium bovis BCG str. ATCC 35743; assay: Antitubercular activity against dormant Mycobacterium bovis BCG ATCC 35743 at 3 ug/ml incubated for 40 mins by XTT Reduction Menadione Assay; assay type: functional
Fusarium oxysporum = assay: Antifungal activity against Fusarium oxysporum NCIM 1332 after 48 hrs by agar cup plate method; assay type: functional; conditions: NCIM 1332, 48 h
[3] = test system: Mycobacterium bovis BCG str. ATCC 35743; assay: Antitubercular activity against dormant Mycobacterium bovis BCG ATCC 35743 at 10 ug/ml incubated for 40 mins by XTT Reduction Menadione Assay; assay type: functional
[4] = test system: Mycobacterium tuberculosis; assay: Antitubercular activity against Mycobacterium tuberculosis H37Ra ATCC 25177 at 3 ug/ml incubated for 40 mins by XTT Reduction Menadione Assay; assay type: functional; conditions: H37Ra ATCC 25177, 40 min, read-out: GI
Candida albicans = assay: Antifungal activity against Candida albicans NCIM 3471 after 48 hrs by agar cup plate method; assay type: functional; conditions: NCIM 3471, 48 h
[5] = test system: Mycobacterium tuberculosis; assay: Antitubercular activity against Mycobacterium tuberculosis H37Ra ATCC 25177 incubated for 40 mins by XTT Reduction Menadione Assay; assay type: functional; conditions: H37Ra ATCC 25177, 40 min
[6] = Antitubercular activity against Mycobacterium bovis BCG ATCC 35743 incubated for 40 mins by XTT Reduction Menadione Assay; assay type: functional, Mycobacterium bovis BCG str. ATCC 35743; conditions: Mycobacterium tuberculosis variant bovis BCG, ATCC 35743, 40 min
[7] = test system: Mycobacterium tuberculosis; assay: Antitubercular activity against Mycobacterium tuberculosis H37Ra ATCC 25177 at 30 ug/ml incubated for 40 mins by XTT Reduction Menadione Assay; assay type: functional; conditions: H37Ra ATCC 25177, 40 min, read-out: GI
[8] = test system: Mycobacterium bovis BCG str. ATCC 35743; assay: Antitubercular activity against dormant Mycobacterium bovis BCG ATCC 35743 at 30 ug/ml incubated for 40 mins by XTT Reduction Menadione Assay; assay type: functional
Pseudomonas fluorescens = assay: Antibacterial activity against Pseudomonas fluorescens after 18 hrs by broth dilution method; assay type: functional
Staphylococcus aureus = assay: Antibacterial activity against Staphylococcus aureus after 18 hrs by broth dilution method; assay type: functional
Bacillus subtilis = assay: Antibacterial activity against Bacillus subtilis after 18 hrs by broth dilution method; assay type: functional
Escherichia coli = assay: Antibacterial activity against Escherichia coli after 18 hrs by broth dilution method; assay type: functional
[9] = Cytotoxicity against human PANC1 cells after 48 hrs by MTT assay; assay type: cell-based, PANC-1
[10] = test system: Mycobacterium tuberculosis; assay: Antitubercular activity against dormant Mycobacterium tuberculosis H37Ra ATCC 25177 incubated for 40 mins by XTT Reduction Menadione Assay; assay type: functional; conditions: H37Ra ATCC 25177, 40 min
[11] = Cytotoxicity against human THP1 cells after 48 hrs by MTT assay; assay type: cell-based, THP-1
[12] = test system: Mycobacterium tuberculosis; assay: Antitubercular activity against active Mycobacterium tuberculosis H37Ra ATCC 25177 incubated for 40 mins by XTT Reduction Menadione Assay; assay type: functional; conditions: H37Ra ATCC 25177, 40 min
[13] = (§1) Cytotoxicity against human A549 cells after 48 hrs by MTT assay; assay type: cell-based; conditions: A549 cells
A549 = assay: as §1; assay type: cell-based; conditions: a549, 48 h
[14] = (§2) Cytotoxicity against human HeLa cells after 48 hrs by MTT assay; assay type: cell-based; conditions: HeLa cells
HeLa = assay: as §2; assay type: cell-based; conditions: hela, 48 h

Compound | MIC (Aspergillus niger) | MIC (Cryptococcus neoformans) | inhibition of growth at 10 µg/mL [1] | MIC (Aspergillus flavus) | growth inhibition (GI) [2] | MIC (Fusarium oxysporum) | growth inhibition (GI) [3] | inhibition of growth at 3 µg/mL [4] | MIC (Candida albicans) | MIC [5] | MIC [6] | inhibition of growth at 30 µg/mL [7] | growth inhibition (GI) [8] | MIC (Pseudomonas fluorescens) | MIC (Staphylococcus aureus) | MIC (Bacillus subtilis) | MIC (Escherichia coli) | further results
O=C(O)CCN1C(=O)/C(=C/c2cc3ccccc3n3nnnc23)SC1=S | 150 µg/mL (≈ 389 µM) | 175 µg/mL (≈ 454 µM) | 17.7% | 150 µg/mL (≈ 389 µM) | 18.8% | 125 µg/mL (≈ 324 µM) | 21.6% | -1.77% | 100 µg/mL (≈ 259 µM) | 174 µg/mL (≈ 451 µM) | 182 µg/mL (≈ 473 µM) | 48.9% | 47.9% |  |  |  |  | 
Clc1ccc(COC(Cn2ccnc2)c2ccc(Cl)cc2Cl)c(Cl)c1 (centres undefined) [MICONAZOLE] | 25 µg/mL (≈ 60.1 µM) | 25 µg/mL (≈ 60.1 µM) |  | 12.5 µg/mL (≈ 30 µM) |  | 25 µg/mL (≈ 60.1 µM) |  |  | 25 µg/mL (≈ 60.1 µM) |  |  |  |  |  |  |  |  | 
NC[C@H]1O[C@H](O[C@H]2[C@H](O)[C@@H](O[C@H]3O[C@H](CO)[C@@H](O)[C@H](N)[C@H]3O)[C@H](N)C[C@@H]2N)[C@H](O)[C@@H](O)[C@@H]1O [KANAMYCIN] |  |  |  |  |  |  |  |  |  |  |  |  |  | 0.49 µg/mL (≈ 1.01 µM) | > 30 µg/mL | 1.35 µg/mL (≈ 2.79 µM) | 1.62 µg/mL (≈ 3.34 µM) | 
Cc1ccc2c(c1)cc(/C=C1\SC(=S)N(CCC(=O)O)C1=O)c1nnnn12 | 25 µg/mL (≈ 62.6 µM) | 50 µg/mL (≈ 125 µM) | 31.6% | 75 µg/mL (≈ 188 µM) | 16.2% | 75 µg/mL (≈ 188 µM) | 13.7% | 1.75% | 100 µg/mL (≈ 250 µM) | 50.5 µg/mL (≈ 126 µM) | 51.3 µg/mL (≈ 128 µM) | 44.7% | 46.4% |  |  |  |  | 
Cc1ccc2c(c1)cc(/C=C1\SC(=S)NC1=O)c1nnnn12 | 25 µg/mL (≈ 76.4 µM) | 25 µg/mL (≈ 76.4 µM) | 23.7% | 100 µg/mL (≈ 305 µM) | 8.79% | 25 µg/mL (≈ 76.4 µM) | -28% | 21.9% | 150 µg/mL (≈ 458 µM) | > 250 µg/mL | > 250 µg/mL | 10.8% | -32.7% | 223 µg/mL (≈ 682 µM) | 159 µg/mL (≈ 486 µM) | 174 µg/mL (≈ 532 µM) | 167 µg/mL (≈ 511 µM) | GI50 at 48 h ([9]; PANC1 cells): 42 µg/mL (≈ 128 µM); GI90 ([9]; panc-1, 48 h): > 100 µg/mL; IC90 [10]: > 250 µg/mL; GI50 at 48 h ([11]; THP1 cells): 63.3 µg/mL (≈ 193 µM); GI90 ([11]; thp-1, 48 h): 63.3 µg/mL (≈ 193 µM); IC90 [12]: > 250 µg/mL; GI50 at 48 h [13]: 89.2 µg/mL (≈ 273 µM); GI90 (A549): 63.3 µg/mL (≈ 193 µM); GI50 at 48 h [14]: > 100 µg/mL; GI90 (HeLa): > 100 µg/mL
CC1(C)S[C@@H]2[C@H](NC(=O)[C@H](N)c3ccccc3)C(=O)N2[C@H]1C(=O)O [AMPICILLIN] |  |  |  |  |  |  |  |  |  |  |  |  |  | 4.36 µg/mL (≈ 12.5 µM) | 1 µg/mL (≈ 2.86 µM) | 10.3 µg/mL (≈ 29.5 µM) | 1.46 µg/mL (≈ 4.18 µM) | 
Cc1cccc2cc(/C=C3\SC(=S)N(CCC(=O)O)C3=O)c3nnnn3c12 | 75 µg/mL (≈ 188 µM) | 50 µg/mL (≈ 125 µM) | 15.5% | 50 µg/mL (≈ 125 µM) | -8.42% | 100 µg/mL (≈ 250 µM) | -11.4% | -0.39% | 100 µg/mL (≈ 250 µM) | 192 µg/mL (≈ 481 µM) | 198 µg/mL (≈ 495 µM) | 36.9% | -8.69% |  |  |  |  | 
